# Reference: patent US8722744B2, “Galenical form for the administration of paracetamol by transmucous means” (priority 2006, dated 2014)
# Columns and labels:
# [1] = administered dosage; cited from earlier work
# [2] = Dissolution of paracetamol in hydroalcoholic solution; assay type: physicochemical; details: ethanol at 45%
# Description: The coefficient for dissolution of paracetamol in ethanol makes it possible to obtain a complete dissolution of said active ingredient at a level of 250 mg of paracetamol per 2 ml of ethanol at 45%. This coefficient can be modulated based on the degree of alcohol and the water/ethanol ratio that is used. By way of example, a 45% water/ethanol mixture at 50/50 by volume produces a better solubilization of paracetamol, compared to that obtained in pure ethanol.
structure (smiles),measurement,setting,value
CC(=O)Nc1ccc(O)cc1 [paracetamol],dosage above which toxic to the liver,[1],higher than 4 g
same,complete dissolution of the active ingredient,[2],250 mg per 2 ml
